Results from US20240285599A1, “Mature-Hepatocyte Transdifferentiation Suppressing Composition” (OSAKA UNIVERSITY, priority 2021, published 2024).

Experiments:
HuCCT1 cell xenograft = assay: HuCCT1 xenograft in NOG mouse, oral NIKSMI; format: in vivo; conditions: twice a day, 200 mg/kg
Description: A histopathological slide was deparaffinized with xylene and ethanol. HE staining was performed with hematoxylin and eosin. In immunostaining, antigen activation was performed by heating in Target Retrieval Solution (Dako, USA), followed by blocking with bovine serum albumin and a reaction through use of a primary antibody at 4° C. overnight. A frozen section was dried at room temperature, and was blocked with BSA (Nacalai Tesque, Inc., Japan), followed by a reaction through use of a primary antibody in VECTASTAIN ABC Rabbit IgG Kit (Vector Laboratories, Inc., USA). DAB Substrate Kit (Vector Laboratories, Inc., USA) was used in a staining reaction. […] The number of Ki67-positive cells in a tumor was counted with ImageJ (Fiji). The immunostaining score of TRAF3 or NIK was calculated by multiplying a staining intensity (of from 0 to 3) by a stained area (%). Human ICC patients were grouped into two groups on the basis of the median immunostaining score of TRAF3 or NIK, and were evaluated for their disease-free survival (DFS) or overall survival (OS).
To generate a xenograft tumor, 5×10^6 HuCCT1 cells were mixed with Matrigel at a ratio of 1:1, and the mixture was subcutaneously injected into each of NOG mice. […] During the period, the diameters of the tumors were measured every 3 days, and the tumor sizes were each calculated by using the following equation. […]

[1] = test system: human cholangiocarcinoma cell line KKU213; assay: Cell proliferation assay (IncuCyte) of cholangiocarcinoma cell line KKU213; format: cell-based
Description: (§1) A human hepatoma cell line HepG2, and human cholangiocarcinoma cell lines HuCCT1, HuCCA1, and KKU213 were obtained from the JCRB Cell Bank. The HepG2 and KKU213 cells were cultured in a Dulbecco's modified Eagle's medium (DMEM; Nacalai Tesque, Inc., Japan) having added thereto 10% heat-inactivated fetal calf serum (FCS; Gibco, USA). The HuCCT1 cells were cultured in an RPMI medium (Nacalai Tesque, Inc., Japan) containing 10% FCS. The HuCCA1 cells were cultured in D-MEM/Ham's F-12 (containing L-glutamine and phenol red) (Wako Pure Chemical Industries, Ltd., Japan) having added thereto 10% FCS. All the cells were cultured with a CO2 incubator at 37° C. The cells were detached with trypsin (Nacalai Tesque, Inc., Japan), and were passaged. Those cells were routinely examined for mycoplasma.
(§2) The transfection of siRNA or a plasmid into cells was performed with Lipofectamine RNAiMAX Transfection Reagent (Thermo Fisher Scientific, Inc., USA) or Lipofectamine 2000 (Thermo Fisher Scientific, Inc., USA), respectively, and with Opti-MEM (Thermo Fisher Scientific, Inc., USA). The transfection of the siRNA was performed as follows: the cells were dispersed at a concentration of 100,000 cells/mL; 10 μM of the siRNA was mixed into 100 μL of the Opti-MEM at a ratio of 1 μL, and the mixture was left at rest for 5 minutes; and then 3 μL of the RNAiMAX was mixed into the mixture, and the whole was left at rest for 15 minutes, followed by administration to the supernatant of the previously dispersed cells. Further, a medium change was performed 24 hours thereafter.
(§3) Hepatocytes or cholangiocarcinoma cells were inoculated on a 96-well plate, and their cell proliferation was analyzed with IncuCyte (trademark) Si (Sartorius AG, Germany) in accordance with the manufacturer's instructions.
(§4) Two kinds of NIK siRNA (the NIK KD #1 and the NIK KD #2) were introduced into each of human cholangiocarcinoma cell lines HuCCT1, HuCCA1, and KKU213 to knock down MAP3K14 (NIK). […]

[2] = test system: human cholangiocarcinoma cell line HuCCA1; assay: Cell proliferation assay (IncuCyte) of cholangiocarcinoma cell line HuCCA1; format: cell-based
Description: as §1, §2, §3, §4

| Compound | number of Ki67-positive cells in tumors versus vehicle-administered tumors (HuCCT1 cell xenograft; NOG mouse HuCCT1 xenograft, 14 days, FIG. 23B) | growth of xenografts derived from the HuCCT1 cells (tumor size) (HuCCT1 cell xenograft; NOG mouse, 14 days from day 28 after transplantation, FIG. 23A) | proliferation of cholangiocarcinoma cells ([1]; 9 μM or 15 μM added at beginning of culture, FIG. 21C) | proliferation of cholangiocarcinoma cells ([2]; 9 μM or 15 μM added at beginning of culture, FIG. 21B) | proliferation of cholangiocarcinoma cells ([1]; NIK siRNA introduced, FIG. 20) | proliferation of cholangiocarcinoma cells ([2]; NIK siRNA introduced, FIG. 19) |
| --- | --- | --- | --- | --- | --- | --- |
| COc1cc(C(N)=O)nc(-c2cccc(C#C[C@]3(O)CCN(C)C3=O)c2)c1 [NIKSMI, (R)-6-(3-((3-hydroxy-1-methyl-2-oxopyrrolidin-3-yl)ethynyl)phenyl)-4-methoxypicolinamide] | significantly lower | significantly suppressed | significantly suppressed | significantly suppressed |  |  |
| NIK KD #2: siRNA of NIK, SEQ ID NO: 4 (sense) and 5 (antisense), from Thermo Fisher Scientific (sense GCAAAGAGCAAGAACCAAAUU; antisense UUUGGUUCUUGCUCUUUGCGU; listed as RNA, chemistry not given here) |  |  |  |  | significantly suppressed | significantly suppressed |
| NIK KD #1: siRNA of NIK, SEQ ID NO: 2 (sense) and 3 (antisense), from Thermo Fisher Scientific (sense CAAACGCAAAGAGCAAGAAUU; antisense UUCUUGCUCUUUGCGUUUGCA; listed as RNA, chemistry not given here) |  |  |  |  | significantly suppressed | significantly suppressed |
